Assay results from patent publication US20240226155A1, “Methods and Products for Reducing HIV Reservoirs” (The Regents of the University of California, priority 2023, published 2024).
Entries after “also recorded” stand apart in the source; their conditions may differ.

Columns and labels:
barcoded HIV NL-HABC = experiment: Kick and kill: SUW133 and NK cells in NL-HABC-infected mice on ART, then ART interruption; assay type: in vivo, TKO-BLT mice
Protocol: To determine whether combining a robust LRA with NK cells would effectively diminish the viral reservoir, as NK cells might eliminate cells induced to express virus due to the LRA activity, the following was performed. BLT mice were infected with NL-HABC, followed by ART to halt productive infection (FIG. 21, FIG. 64). Once mice were suppressed on ART, a subset of mice received a single intraperitoneal injection of 2 μg of SUW133 per mouse to reverse latency, followed by an intravenous injection of 5×10^6 allogeneic human NK cells eight hours later. Reactivation and killing of activated infected cells was allowed to occur while the mice were maintained on ART. ART was then discontinued, and mice were concurrently administered one more intravenous injection of 5×10^6 NK cells. A subset of control mice received SUW133, but no NK cell injections. All remaining control mice received DMSO as a vehicle control instead of SUW133. A subset of the mice receiving DMSO also received NK cell injections. Plasma viral loads were monitored after ART interruption for 12.1 weeks (FIG. 22). In these experiments, TKO-BLT mice, which can be robustly infected with HIV and are less susceptible to GVHD compared to NSG-BLT, were used and allowed monitoring the mice after ART interruption for a longer interval.
RNA was extracted from the barcoded virus supernatant using QIAamp Viral RNA Mini Kit (Qiagen) and from cells using RNeasy MiniKit (Qiagen). cDNA was generated using SuperScript IV First-Strand Synthesis Kit (Invitrogen). The same amount of input RNA that was used for viral load measurement was also used for cDNA synthesis for barcode analysis. The barcode region was amplified by hemi-nested PCR using Phusion High-Fidelity DNA Polymerase (ThermoFisher Scientific). Each RNA molecule was tagged with a Primer ID using methods in the art. Primer ID removal and cDNA purification was performed using an Purelink Quick PCR Purification Kit (Invitrogen) and methods in the art. […] Deep sequencing was performed with Illumina HiSeq3000 PE150. Sequencing depth was 10-fold higher than viral genome copies. Raw sequencing reads were de-multiplexed using the six-nucleotide ID. Sequencing error within the barcode region was corrected by filtering out low quality reads (quality score<30) and un-matched base-pairs between forward and reverse reads. PrimerIDs were used to correct sequencing errors. The frequency of Primer ID reads followed a bi-modal distribution (FIG. 53). The Primer IDs were filtered using the frequency cutoff between the Poisson distribution of errors and normal distribution of real Primer IDs. For each Primer ID, the most frequently observed barcode was called. Similar barcodes were then grouped into clusters. […]

HIV = conditions: cited from earlier work

In the case of `C=C1C[C@H]2C[C@]3(O)O[C@H](C[C@@H](O)CC(=O)O[C@@H](CO)C[C@@H]4C/C(=C\C(=O)OC)[C@H](OC(=O)CCCCCCC)[C@@](O)(O4)C(C)(C)/C=C/[C@@H](C1)O2)C[C@H](OC(C)=O)C3(C)C` [SUW133], the “delay to rebound after ART interruption (Kaplan-Meier, log-rank)” value (barcoded HIV NL-HABC; combination vs other groups (P=0.012 vs DMSO, 0.0037 vs SUW133, 0.09 vs NK), single agents vs DMSO (P=0.59, 0.47)) is reported as “did not demonstrate a significant delay in rebound”, the “mean unique barcodes per mouse” value (barcoded HIV NL-HABC; deep sequencing of rebounding viral RNA, DMSO alone 4.7) is reported as 4.1 and the “CD69 expression on peripheral CD4+ T cells in the blood” value (barcoded HIV NL-HABC; five days after administration of SUW133) is reported as “significant increase; also recorded: significantly elevated”. For the same compound, the “rebound viremia during the lengthened interval of ART interruption” value (barcoded HIV NL-HABC; monitored about 12 weeks) was “eventually rebound; also recorded: rebounded”, the “replication-competent virus from splenocytes in ex vivo cultures” value (HIV; SUW133-treated mice, prior studies) was “generated replication-competent virus” and the “delay of rebound viremia after ART interruption” value (HIV; SUW133 alone, prior studies) was “up to two to four weeks”. For the same compound, the “time of maximal CD69 expression on CD4+ T cells in vivo” value (HIV; post-SUW133 injection, previous report) was “approximately one to two days”, the “time CD69 can be detected on CD4+ T cells in vivo” value (HIV; post-injection, previous report) was “up to nine days” and the “CD4+ T cell activation and latency reversal in vivo” value (HIV; single administration) was “activated CD4^+ T cells and reversed latency in vivo”.
